From EP0339978B1, “Fused polycyclic compounds, compositions, methods of manufacture, and their use as PAF antagonists, antihistamines and/or antiinflammatory agents” (SCHERING CORPORATION, priority 1988, dated 1989)

Columns and labels:
[1] = system: PAF; assay: PAF antagonism in vitro assay: PAF-induced platelet aggregation in platelet-rich plasma; type: cell-based; settings: PAF 1-5 X 10^-8M, human PRP
Procedure: Preparation of platelet-rich plasma (PRP): Human blood (50 ml) is collected from healthy male donors. The blood is mixed with an anticoagulant solution (5 ml) containing sodium citrate (3.8%) and dextrose (2%). Blood is centrifuged at 110 X g for 15 min. and the supernatant PRP is carefully transferred into a polypropylene tube. Platelet-poor-plasma (PPP) is prepared by centrifuging PRP at 12,000 X g for 2 min. in a Beckman Microfuge B. PRP is used within 3 hours of drawing the blood.
Platelet Aggregation Assay: When an aggregating agent such as PAF is added to PRP, platelets aggregate. An aggregometer quantifies this aggregation by measuring light (infra-red) transmission through PRP and comparing it to transmission through PPP. The aggregation assays are performed using a dual-channel aggregometer (Model 440, Chrono-Log Corp., Havertown, PA). PRP (0.45 ml) in aggregometer curettes is continually stirred (37°C). Solutions of test compounds or vehicle are added to the PRP, and, after incubation for 2 min., 10-15 µl aliquots of pAF solution are added so as to achieve a final concentration of 1-5 X 10^-8M. Incubations are continued until the increase in light transmission reaches a maximum (usually about 2 min). Values for inhibition are calculated by comparing maximal aggregation obtained in the absence and the presence of the compound. For each experiment, a standard PAF antagonist, such as alprazolam, is used as a positive internal control. The inhibitory concentration is the concentration of compound in micromoles at which the indicated % inhibition of the aggregation is found, as measured by the light transmission through each sample of PRP as compared to that through each sample of PPP.

[2] = system: Cellular and Fluid Influx to Rat Pleural Cavity; assay: Inhibition of cellular and fluid influx to rat pleural cavity (antiinflammatory activity assay); type: in vivo; settings: 25 mg 1 kg p.o., rats
Procedure: Compounds 3.0 of this invention are useful for the treatment of inflammation; thus, they are useful for the treatment of arthritus, bursitis, tendonitis, gout, and other inflammatory conditions. […] Protection against cellular and fluid influx strongly indicates antiinflammatory properties. D. Antiinflammatory Activity Assay Inhibition of Cellular and Fluid Influx to Rat Pleural Cavity. Groups of 4 male rats are injected in the penile vein with antigen (1 mg BSA in 0.2 mL of saline per rat) and 0.5 hour later injected in the pleural cavity with antibody (1.0 mg antibody protein in the IgG fraction of rabbit anti-BSA in 0.2 mL). […] After 4 hours the animals are killed with CO2, and the pleural cavities are opened and the exudate is drained into a graduated conical glass centrifuge tube containing indomethacin (1.8 ug) and nordihydroguaiaretic acid (NDGA) (15 ug) to block ex vivo metabolite synthesis. The volume of the exudate is measured. The cavity is then washed out with saline-EDTA to achieve a final volume of 5.0 mL. The number of cells is determined in a Coulter Counter. The cells are spun-down (1000 x g) and the exudate supernatant is added to 4 volumes of 95% ethanol and samples are kept on ice for 30 minutes. After removal of the protein precipitate (2,500 x g) the ethanol extract of the exudate is dried under N2 and then is stored at -20°C. […]

| Compound | Inhibition (%) ([1]; Dose 50 μm) | Inhibition (%) ([1]; Dose 12 μm) | Inhibition (%) ([1]; Dose 25 μm) | reduced cellular influx to the pleural cavity [2] [%] | reduced fluid influx to the pleural cavity [2] [%] |
| --- | --- | --- | --- | --- | --- |
| COc1ccc(Cn2c(C)nc3c2CCc2ccccc2C3=C2CCN(C(C)=O)CC2)cc1 [compound 5] | 67 |  |  |  |  |
| CC(=O)N1CCC(=C2c3ccccc3CCc3sc(C)nc32)CC1 [compound 4] | 100 | 29 | 71 |  |  |
| O=C1c2ccccc2CCc2c1[nH]c1ccccc21 [Compound E, 11,12-Dihydrobenzo[5,6]cyclohepta[1,2-b]indol-6(5H)-one] |  |  |  | 65 | 25 |
